From patent publication US8748369B2, “Use of targeted nitroxide agents in bone healing” (University of Pittsburgh-Of the Commonwealth System of …, priority 2009, dated 2014)
Where a SMILES comes first, the peptide text is derived from it. [ ]: non-standard residue; d: D form. The star is where a group is joined. NH(TEMPO-4-yl) = CC1(C)CC(N*)CC(C)(C)N1[O]; Orn = NCCC[C@H](N)C(=O)O; Cbz = O=C(OCc1ccccc1)*; Boc = CC(C)(C)OC(=O)*

Assays:
mouse embryonic cells = assay: Gamma-irradiation dose survival curves of mouse embryonic cells; format: cell-based; conditions: 20 μM pre- (10-min) or post-treated (1-h)
Method: Cells were plated in 35-mm Petri dishes with 2 ml culture medium at a density between 100 and 1000 cells per dish. Cells were treated with GS-nitroxide (XJB-5-125) either before (10-min) or after (1-h) γ-irradiation. XJB-5-125 was removed from the medium 4-h post-irradiation. Colonies were fixed and stained with 0.25% crystal violet and 10% formalin (35% v/v) in 80% methanol for 30 min after a 9-day incubation period, and those of ≧50 cells were counted as survivors. The surviving fraction was calculated as the plating efficiency of the samples relative to that of the control.
Cells were pre- (10-min) or post-treated (1-h) with XJB-5-125 (20 μM), which was removed after 4-h incubation period. The surviving fraction was calculated as the plating efficiency of the samples relative to that of the control. The data was fitted to a single-hit multitarget model using SigmaPlot 9.0 (Systat Software). Data presented are the mean±S.E. (n=3).

[1] = system: mouse embryonic cells (MEC); assay: ActD-induced apoptosis in MECs (PS externalization, caspase-3, DNA fragmentation); format: cell-based
Text: Cells that annexin V-positive and PI-negative were considered apoptotic.

NOD/SCID mice = assay: Proposed: human CD34+ cord blood stem cell seeding into irradiated limbs of NOD/SCID mice; conditions: mouse, in vivo
Text: Selection and optimization of a GS-nitroxide JP4-039 therapy to enhance human CD34+ cord blood multilineage hematopoietic stem cell progenitor cell seeding into irradiated limbs of NOD/SCID mice that have been prepared by engraftment of human marrow stromal cells.
2. Experiments using the optimal seeding protocol for human KM101 cells into irradiated NOD/SCID mice (anticipated to be those mice receiving MnSOD-PL prior to irradiation, and then injection with KM101-MnSOD/ds-red, supplemented with JP4-039 daily). Mice can then receive intravenous injection of 1×10^5 or 1×10^6 CD34+ LIN− cells from human umbilical cord blood origin. Control cells may be CD34+ LIN+ (differentiated progenitor) cells 10^5 or 10^6 per injection. Groups of 12 mice. These experiments may be carried out in two schedules. • a. […]
In these experiments, mice can be followed and tested at serial time points out to two months after cord blood stem cell transplantation. The percent of human peripheral blood hematopoietic cells can be scored in weekly peripheral blood samples and number of cells forming CFU-GEMM colonies can be tested in explanted bones from sacrificed mice. […]
Experiments in vitro supplementing in co-cultivation culture media the drug JP4-039 daily. […] Stromal cell cultures may be irradiated, cord blood cells added, and cultures scored as above. […]

[2] = system: KM101 human marrow stromal cells; assay: Irradiation survival curves of KM101 cells; format: cell-based
Method: KM101 cells were incubated in media alone or in JP4-039 (10 μM) for one hour before irradiation or 24 hours after irradiation. The cells were irradiated to doses ranging from 0 to 6 Gy and plated in 4 well plates. Seven days later the cells were stained with crystal violet and colonies of greater than 50 cells counted. Cells incubated in JP4-039 either before or after irradiation were more radioresistant as shown by an increased shoulder of n=2.3±0.2 or 2.2±0.2, respectively compared to n of 1.1±0.1for the KM101 cells (p=0.0309 or 0.0386, respectively).

SMILES	radiation mitigation and protection (FIG. 15 survival curves) (mouse embryonic cells)	concentration range of activity in cells (dose-dependent attenuation of ActD-induced PS externalization) [1] [µM]	hematopoietic cell survival and CFU-GEMM numbers (NOD/SCID mice)	n (shoulder on the survival curve) ([2]; 10 μM 24 hours after irradiation)	change in Do ([2]; 10 μM before or after irradiation)	n (shoulder on the survival curve) ([2]; 10 μM one hour before irradiation)
CC(C)C[C@H](NC(=O)OC(C)(C)C)C(=O)N[C@H](Cc1ccccc1)C(=O)N1CCC[C@H]1C(=O)N[C@H](C(=O)N[C@@H](CCCNC(=O)OCc1ccccc1)C(=O)NC1CC(C)(C)N([O])C(C)(C)C1)C(C)C [XJB-5-125] (Boc-L[dF]PV[Orn](Cbz)-{NH(TEMPO-4-yl)})	radiation mitigator as well as a protector	2.5 to 20	–	–	–	–
CC(C)C[C@@H](/C=C/CC(=O)NC1CC(C)(C)N([O])C(C)(C)C1)NC(=O)OC(C)(C)C [JP4-039, (S,E)-5-(tert-Butoxycarbonylamino)-7-methyloct-3-enoic acid-TEMPO]	–	–	further enhance hematopoietic cell survival and increase CFU-GEMM in numbers	2.2±0.2	no significant change	2.3±0.2
